Results published in patent US6649626B1, “N-substituted 1-(lactone) isoquinolones for treating nervous disorders” (Centre National de la Recherche Scientifique (CNRS), priority 1999, dated 2003).

Tests used:
[1] = target: T1, α1β2γ2 subtype of the GABA receptor (Rattus norvegicus, UniProt P18508+P62813+P63138); assay: Electrophysiology: modulation of GABA currents in Xenopus oocytes expressing recombinant GABA-A receptors; type: cell-based; settings: for % stimulation of the GABA currents / % stimulation of the GABA currents (100 μM): α1β2γ2 in oocytes; for % stimulation of the GABA currents (100 μM): 100 μM compound with GABA
T1 construct: expressed in transfected cells; host or cells: Xenopus laevis oocytes (cRNA injection)

[2] = tested on: picrotoxin-binding site of the GABA-A receptor; assay: Displacement of 35S-TBPS from brain membranes; design: species or system rats
[3] = target: T2, benzodiazepine-binding site of the GABA-A receptor (Rattus norvegicus, UniProt P18508+P62813); assay: Displacement of tritiated flunitrazepam from brain membranes
T2 construct: IC50 Flu / BZ receptor; other: cerebellum (ce); other: cerebellum (ce; BZ1 subtype); other: 10 μM; cerebellum; other: 100 μM; other: 0.5 μM

[4] = tested on: GABA-binding site of the GABA-A receptor; assay: Displacement of tritiated muscimol from brain membranes; settings: for Muscimol: stimulation: stimulation instead of displacement
[5] = tested on: benzodiazepine-binding site of the GABA-A receptor; assay: Displacement of tritiated flunitrazepam from brain membranes

T1 sequence (P62813 28-455): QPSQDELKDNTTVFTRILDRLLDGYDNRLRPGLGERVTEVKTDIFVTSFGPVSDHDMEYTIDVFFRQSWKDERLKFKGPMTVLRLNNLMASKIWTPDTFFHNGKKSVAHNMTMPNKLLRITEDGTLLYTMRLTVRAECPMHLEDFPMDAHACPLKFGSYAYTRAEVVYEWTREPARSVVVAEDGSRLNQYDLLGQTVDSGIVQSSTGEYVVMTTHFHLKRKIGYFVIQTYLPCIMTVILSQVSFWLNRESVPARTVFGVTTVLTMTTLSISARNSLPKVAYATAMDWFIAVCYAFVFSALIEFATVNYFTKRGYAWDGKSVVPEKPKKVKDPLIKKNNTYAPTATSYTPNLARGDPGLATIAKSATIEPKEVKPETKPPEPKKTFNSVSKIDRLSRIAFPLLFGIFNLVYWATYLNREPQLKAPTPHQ
T1 sequence (P63138 25-474 limits assumed): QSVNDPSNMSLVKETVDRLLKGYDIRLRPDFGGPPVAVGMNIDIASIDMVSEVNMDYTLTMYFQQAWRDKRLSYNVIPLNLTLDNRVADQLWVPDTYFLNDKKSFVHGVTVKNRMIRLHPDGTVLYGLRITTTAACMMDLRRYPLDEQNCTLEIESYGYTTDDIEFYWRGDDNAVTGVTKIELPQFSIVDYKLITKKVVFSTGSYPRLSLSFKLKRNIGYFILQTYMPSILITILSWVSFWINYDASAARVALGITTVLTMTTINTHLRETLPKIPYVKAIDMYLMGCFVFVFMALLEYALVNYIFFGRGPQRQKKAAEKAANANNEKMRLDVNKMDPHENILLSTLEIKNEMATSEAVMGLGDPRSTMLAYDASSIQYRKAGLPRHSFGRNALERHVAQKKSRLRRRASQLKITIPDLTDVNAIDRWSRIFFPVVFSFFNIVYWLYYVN
T1 sequence (P18508 39-466): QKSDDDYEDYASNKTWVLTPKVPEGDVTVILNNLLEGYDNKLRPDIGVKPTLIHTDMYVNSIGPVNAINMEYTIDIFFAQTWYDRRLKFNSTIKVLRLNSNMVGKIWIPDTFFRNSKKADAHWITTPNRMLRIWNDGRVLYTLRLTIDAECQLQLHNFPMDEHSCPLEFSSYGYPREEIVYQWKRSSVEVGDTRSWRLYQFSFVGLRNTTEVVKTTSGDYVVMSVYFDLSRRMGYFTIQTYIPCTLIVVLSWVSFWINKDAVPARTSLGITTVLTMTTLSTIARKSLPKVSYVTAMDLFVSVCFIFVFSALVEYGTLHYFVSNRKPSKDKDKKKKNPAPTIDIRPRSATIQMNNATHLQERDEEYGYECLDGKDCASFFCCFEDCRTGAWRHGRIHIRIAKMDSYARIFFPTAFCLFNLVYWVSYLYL
T2 sequence (P62813 28-455): as the sequence (P62813 28-455) above
T2 sequence (P18508 39-466): as the sequence (P18508 39-466) above
T2 sequence (P63138 26-474 partner): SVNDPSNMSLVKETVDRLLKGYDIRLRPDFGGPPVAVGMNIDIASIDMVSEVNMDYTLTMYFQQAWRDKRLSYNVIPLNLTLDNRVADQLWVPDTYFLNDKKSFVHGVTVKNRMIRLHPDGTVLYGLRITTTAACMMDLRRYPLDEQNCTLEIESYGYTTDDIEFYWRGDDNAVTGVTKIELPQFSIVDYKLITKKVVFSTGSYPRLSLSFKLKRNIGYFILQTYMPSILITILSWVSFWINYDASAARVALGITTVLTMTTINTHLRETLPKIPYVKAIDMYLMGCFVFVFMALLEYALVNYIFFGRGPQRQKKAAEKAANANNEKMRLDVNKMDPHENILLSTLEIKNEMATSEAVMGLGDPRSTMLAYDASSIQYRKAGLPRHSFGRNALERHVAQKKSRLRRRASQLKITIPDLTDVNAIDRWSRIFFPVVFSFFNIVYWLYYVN

O=C1C=CC(C2c3ccccc3CCN2C(=O)OCc2ccccc2)O1 (racemic) [Compound 50]
% stimulation of the GABA currents ([1]; 0.1 μM compound): +26 ± 6% | % stimulation of the GABA currents (100 μM) [1]: +281 ± 35% | blockade of the stimulation by flumazenil (in words) ([1]; printed after the 0.1 μM value): completely blocked by flumazenil | Inhibition of the tritiated ligands % TBPS ([2]; 0.5 μM): 5% | Inhibition of the tritiated ligands % TBPS ([2]; 10 μM): 30% | Inhibition of the tritiated ligands % Flu ([3]; 0.5 μM, tissue not stated): 55% | Inhibition of the tritiated ligands % Flu ([3]; 10 μM, tissue not stated): 90% | Inhibition of the tritiated ligands % Flu (100 μM) ([3]; tissue not stated): 100% | Displacement of muscimol ([4]; 100 μM): 100 μM = 0%

O=C1C=CC(C2c3ccccc3CCN2C(=O)OCc2ccccc2)O1 (racemic) [Compound 51]
% stimulation of the GABA currents ([1]; 0.1 μM compound): 0% | % stimulation of the GABA currents (100 μM) [1]: +225 ± 68% | Inhibition of the tritiated ligands % TBPS ([2]; 0.5 μM): 0% | Inhibition of the tritiated ligands % TBPS ([2]; 10 μM): 20% | Inhibition of the tritiated ligands % Flu ([3]; 0.5 μM, tissue not stated): 0% | Inhibition of the tritiated ligands % Flu ([3]; 10 μM, tissue not stated): 50% | Inhibition of the tritiated ligands % Flu (100 μM) ([3]; tissue not stated): 85% | Displacement of muscimol ([4]; 100 μM): 100 μM = 0%

O=C1C=CC(C2c3ccccc3CCN2C(=O)Cc2ccccc2)O1 (racemic) [Compound 55]
% stimulation of the GABA currents ([1]; 0.1 μM compound): 0% | % stimulation of the GABA currents (100 μM) [1]: +33 ± 4% | Inhibition of the tritiated ligands % Flu (100 μM) ([3]; tissue not stated): 95% | Inhibition of the tritiated ligands % Flu ([5]; 0.5 μM, cerebellum): 30% | Inhibition of the tritiated ligands % Flu ([5]; 0.5 μM, cortex): 20% | Inhibition of the tritiated ligands % Flu ([5]; 10 μM, cerebellum): 80% | Inhibition of the tritiated ligands % Flu ([5]; 10 μM, cortex): 70% | Displacement of muscimol ([4]; 100 μM): 100 μM = 0%

O=C1C=CC(C2c3ccccc3CCN2C(=O)Cc2ccccc2)O1 (racemic) [Compound 56]
block of the stimulation caused by 20 μM of 164B ([1]; 100 μM): blocks the stimulation caused by 20 μM of 164B | % stimulation of the GABA currents (100 μM) [1]: +10 ± 17% | Inhibition of the tritiated ligands % Flu ([3]; 0.5 μM, cerebellum): 30% | Inhibition of the tritiated ligands % Flu ([3]; 0.5 μM, cortex): 20% | Inhibition of the tritiated ligands % Flu ([3]; 10 μM, cerebellum): 80% | Inhibition of the tritiated ligands % Flu ([3]; 10 μM, cortex): 70% | Inhibition of the tritiated ligands % Flu (100 μM) ([3]; cerebellum): 85% | Inhibition of the tritiated ligands % Flu (100 μM) ([3]; cortex): 90% | Displacement of muscimol ([4]; 100 μM): 100 μM = 0%

O=C1C=CC(C2c3ccccc3CCN2C(=O)Oc2ccccc2)O1 (racemic) [Compound 57]
% stimulation of the GABA currents ([1]; 0.1 μM compound): 0% | % stimulation of the GABA currents (100 μM) [1]: +175 ± 13% | Inhibition of the tritiated ligands % Flu ([3]; 0.5 μM, cerebellum): 35% | Inhibition of the tritiated ligands % Flu ([3]; 0.5 μM, cortex): 25% | Inhibition of the tritiated ligands % Flu ([3]; 10 μM, cerebellum): 90% | Inhibition of the tritiated ligands % Flu ([3]; 10 μM, cortex): 75% | Inhibition of the tritiated ligands % Flu (100 μM) ([3]; cerebellum): 90% | Inhibition of the tritiated ligands % Flu (100 μM) ([3]; cortex): 85% | Displacement of muscimol ([4]; 10 μM): 0% | Muscimol: stimulation ([4]; 100 μM): 10-20%

O=C1C=CC(C2c3ccccc3CCN2C(=O)Oc2ccccc2)O1 (racemic) [Compound 58]
% stimulation of the GABA currents ([1]; 0.1 μM compound): 0% | % stimulation of the GABA currents (100 μM) [1]: +159 ± 8% | Inhibition of the tritiated ligands % TBPS ([2]; 10 μM): 0% | Inhibition of the tritiated ligands % Flu (100 μM) ([3]; tissue not stated): 70% | Inhibition of the tritiated ligands % Flu ([5]; 0.5 μM, tissue not stated): 0% | Inhibition of the tritiated ligands % Flu ([5]; 10 μM, tissue not stated): 45% | Displacement of muscimol ([4]; 100 μM): 100 μM = 0%

O=C1C=CC(C2c3ccccc3CCN2C(=O)c2ccccc2)O1 (racemic) [Compound 60]
% stimulation of the GABA currents ([1]; 0.1 μM compound): 0% | % stimulation of the GABA currents (100 μM) [1]: +14 ± 13% | Inhibition of the tritiated ligands % Flu ([3]; 0.5 μM, cerebellum): 35% | Inhibition of the tritiated ligands % Flu ([3]; 0.5 μM, cortex): 25% | Inhibition of the tritiated ligands % Flu ([3]; 10 μM, cerebellum): 90% | Inhibition of the tritiated ligands % Flu ([3]; 10 μM, cortex): 80% | Inhibition of the tritiated ligands % Flu (100 μM) ([3]; tissue not stated): 90% | Displacement of muscimol ([4]; 100 μM): 100 μM = 0%

Cc1ccc(S(=O)(=O)N2CCc3ccccc3C2[C@H]2CCC(=O)O2)cc1 (mixture of isomers) [Compound 67, (±)-(1R,2′R)-1-(2,3,4,5-Tetrahydro-5-oxo-2-furyl)-2-N-p-toluenesulfonyl-1,2,3,4-tetrahydroisoquinoline]
% stimulation of the GABA currents ([1]; 0.1 μM compound): 7 ± 5% | % stimulation of the GABA currents (100 μM) [1]: +579 ± 106% | % stimulation of the GABA currents (100 μM) ([1]; listed as (+/−) 67): +579% | Inhibition of the tritiated ligands % Flu ([3]; 10 μM, tissue not stated): 20% | Inhibition of the tritiated ligands % Flu (100 μM) ([3]; cerebellum): 50% | Inhibition of the tritiated ligands % Flu (100 μM) ([3]; cortex): 30% | Inhibition of the tritiated ligands % Flu ([5]; 0.5 μM, tissue not stated): 0% | Muscimol: stimulation ([4]; 100 μM): Muscimol: 5-10% stimulation at 100 μM

Cc1ccc(S(=O)(=O)N2CCc3ccccc3C2C2CCC(=O)N2)cc1 (racemic) [Compound 73]
% stimulation of the GABA currents (100 μM) [1]: 26 ± 8%

Cc1ccc(S(=O)(=O)N2C=Cc3ccccc3C2[C@H]2CCC(=O)O2)cc1 (mixture of isomers) [Compound 76, (±)-(1R,2′R)-2-N-Tosyl-1-(2,3,4,5-tetrahydro-5-oxo-2-furyl)-1,2-dihydroisoquinoline]
% stimulation of the GABA currents ([1]; 10 μM compound): 97 ± 2% | % stimulation of the GABA currents (100 μM) [1]: +481 ± 116% | Inhibition of the tritiated ligands % Flu (100 μM) ([3]; tissue not stated): 0% | Muscimol: stimulation ([4]; 100 μM): 20% stimulation at 100 μM

Cc1ccc(S(=O)(=O)N2CCc3ccccc3C2C2CCC(=O)O2)cc1 (single isomer, unassigned) [Compound 68]
% stimulation of the GABA currents (100 μM) [1]: +184 ± 43% | % stimulation of the GABA currents (100 μM) ([1]; listed as (−) 68): +184%

Cc1ccc(S(=O)(=O)N2CCc3ccccc3C2C2CCC(=O)O2)cc1 (single isomer, unassigned) [Compound 69]
portion of the stimulatory activity due to a binding site distinct from those for the benzodiazepines [1]: < 70% | % stimulation of the GABA currents (100 μM) [1]: +859 ± 75% | % stimulation of the GABA currents (100 μM) ([1]; listed as (−) 69): +859% | % of the stimulation inhibited by flumazenil ([1]; stimulation by 20 μM compound, 1 μM flumazenil): 28%
